Data published in US20220312768A1, “COMBINATIONS OF AGROCHEMICALS WITH METABOLIC INHIBITORS” (THE BOARD OF TRUSTEES OF THE UNIVERSITY OF ARKANSAS, priority 2021, published 2022).
“And” between values parts separate entries of the source, which are not always exact repeats. Equal entries are not always repeated. “Also recorded” adds a separate entry of the source.

How the values were obtained:
Palmer amaranth [1] = assay: Greenhouse experiment, GST blockers added to KFD-581-01, Palmer amaranth control and biomass reduction; format: in vivo, Amaranthus palmi; conditions: for Palmer amaranth control, relative effectiveness of treatments: 7 DAA; for Palmer amaranth control versus KFD-581-01 applied alone / Reduction in above-ground biomass compared to the untreated check: 14 DAA, higher rates + KFD-581-01 300 g ai/ha
Palmer amaranth [2] = system: Palmer amaranth; set-up: species or system Amaranthus palmeri; conditions: in vivo
[3] = all rates (17, 34, 67 g ai/ha) + KFD-581-01 300 g ai/ha

Structure (SMILES)	Palmer amaranth control, relative effectiveness of treatments (Palmer amaranth [1]; [3])	Palmer amaranth control versus KFD-581-01 applied alone (Palmer amaranth [1])	Reduction in above-ground biomass compared to the untreated check (Palmer amaranth [1])	Palmer amaranth control, relative effectiveness of treatments (Palmer amaranth [1]; two highest rates (34 and 67 g ai/ha) + KFD-581-01 300 g ai/ha)	Palmer amaranth control (%) (Palmer amaranth [2])	Efficacy at the highest rate versus low or mid rates (Palmer amaranth [1]; 67 g ai/ha versus 17 or 34 g ai/ha, + KFD-581-01 300 g ai/ha)
O=c1oc2c(O)c(O)cc3c(=O)oc4c(O)c(O)cc1c4c23 [ellagic acid]	most effective; also recorded: more effective than any rate of curcumin or NBD-CL	increased levels of Palmer amaranth control	largest reductions in biomass			
O=C(O)[C@H]1O[C@@H](Oc2cc3oc(-c4ccccc4)cc(=O)c3c(O)c2O)[C@H](O)[C@@H](O)[C@@H]1O [baicalin]		increased levels of Palmer amaranth control		most effective; also recorded: more effective than any rate of curcumin or NBD-CL		
CP(=O)(O)CCC(N)C(=O)O (centres unmarked) [Glufosinate, 2-amino-4-[hydroxy(methyl)phosphoryl]butanoic acid]					74% and 60% and 74b % and 60c %	
O=C(O)/C=C/c1ccc(O)c(O)c1 [caffeic acid]	most effective; also recorded: more effective than any rate of curcumin or NBD-CL	increased levels of Palmer amaranth control				decreased efficacy at the highest rate
O=c1c(O)c(-c2ccc(O)c(O)c2)oc2cc(O)cc(O)c12 [quercetin]	most effective; also recorded: more effective than any rate of curcumin or NBD-CL		largest reductions in biomass			
